Assay results reported in patent publication US4377592A, “Antiarrhythmic activity of cetiedil” (Innothera, priority 1979, dated 1983).
“And” between values parts separate entries of the source, which are not always exact repeats. Identical values can stand only once. Like-named read-outs stand apart in the source and are kept apart here.

What was measured:
in vivo = settings: mouse, iv
rat aortic fragments [1] = experiment: Contraction of rat aorta fragment induced by potassium depolarisation; assay type: cell-based; settings: for pD'2: pD'2 = pDx + log (x - 1)
Protocol: (§1) Fragments of aorta removed from rats are immersed in survival fluid in the presence of carbogene at 37° C. By modifying the ionic equilibrium of the survival medium, it was possible to study the effects of […] on contraction of the aortic fragments induced by depolarisation with potassium or calcium.

[2] = test system: atrio-ventricular conduction; experiment: Atrio-ventricular conduction in the anaesthetized dog (Duchene-Marullaz); assay type: in vivo
Source text: (§2) The technique of DAWES (modified by ALLIES ET AL.) was used with the isolated guinea-pig atrial, and the technique of DUCHENE-MARULLAZ, J. Pharmacol. Paris, 1970, 1, 539, in the anaesthetized dog. This method is used to study the permeability of atrio-ventricular conduction, and thus more precisely conduction at the level of Tawara's nod.

[3] = test system: polymorphous arrhythmias induced by adrenaline petrol-ether; experiment: Polymorphous arrhythmias induced in the anaesthetised guinea-pig by adrenaline and petrol ether; assay type: in vivo
Source text: Adrenaline in high dosage is a powerful arrhythmogenic stimulus to a myocardia induced by petrol ether, as recognized in the guinea-pig by LE MARECHAL J., Thesis Doct.

[4] = Tolerance of normal healthy adult male subjects to cetiedil given by intravenous infusion; assay type: in vivo, human
rat aortic fragments [5] = experiment: Competitive antagonism of calcium dose/effect curve of contraction of rat aortic fragment; assay type: cell-based; settings: competitive inhibition versus calcium
Protocol: as §1

[6] = test system: ventricular fibrillation induced by CaCl2; experiment: Calcium (CaCl2) induced ventricular fibrillation in the anaesthetized rat, Malinow's technique; assay type: in vivo
Protocol: According to MALINOW, M. R., et coll. Acta. Physiol Latino. Americ.
Using the anaesthetized rat, 200 mg/kg of CaCl2 was injected two minutes after the substances to be tested. The ECG was recorded continuously in lead II.

[7] = test system: chloroform-induced ventricular fibrillation; experiment: Chloroform-induced ventricular fibrillation in the mouse; assay type: in vivo
Source text: In this technique first described by LAWSON, J. W. in J. Pharm. Exp. Ther. 1968, 160, 22 and Vargaftig, B. B. et al in Eur. J. Pharmacol. 1969, 6, 49, the inhalation of chloroform vapour produced in the mouse apnea followed by ventricular fibrillation.
The mechanism of this technique remains unknown.

[8] = test system: ventricular tachycardia induced by ouabaine; experiment: Ouabain induced ventricular tachycardia in the anesthetized guinea-pig; assay type: in vivo; settings: 5 and 10 mg/kg
Protocol: This test is used to determine the dose of ouabain administered by slow infusion necessary to obtain the appearance of ventricular extrasystoles. The animal used was the guinea pig and the substances were administered intravenously.

[9] = test system: isolated guinea-pig atrial; experiment: Stimulated isolated guinea pig atrial (technique of Dawes); assay type: cell-based
Source text: as §2

[10] = test system: ventricular tachycardia induced by Ouabain; experiment: Ouabain induced ventricular tachycardia in the dog (Lucchesi and Hardman); assay type: in vivo; settings: at the average effective dose
Source text: The method used is that of […] and HARDMAN, J. Pharmacol. Exp. Ther. 1961, 132, 372-381. Ventricular tachycardia was obtained by the sequential administration of Ouabain until a permanent ventricular tachycardia developed. Following observation of the effect of the substance, the reappearance of this ventricular tachycardia following the injection of insulin was confirmed, thereby showing the persistence within the heart of a toxic dose of Ouabain (Average dose of Ouabain 71.25 γ kg IV).

[11] = test system: rabbit cornea oculo-palpebral reflex; assay type: in vivo; settings: for TOTAL DEGREE OF ANAESTHESIA FOR 60 minutes: rabbit cornea, total 13 no anaesthesia, 1300 complete
Source text: For the purpose of this study, the classical technique of REGNIER J., Thesis Doct. […] This consists of repeating touching of the rabbit cornea until an oculo-palpebral reflex is obtained. It should be noted that […], in common with the reference substances, was used in the form of the HCl Salt.

[12] = cited from earlier work

Structure (SMILES): O=C(OCCN1CCCCCC1)C(c1ccsc1)C1CCCCC1 (stereo not drawn) [citrate monohydrate of α-cyclohexyl-3-thiopheneaceticacid 2-(hexahydro-1H-azepin-1-yl)ethyl ester]
- LD50 (in vivo): 57 mg/kg
- IC50 (rat aortic fragments [1]; in the presence of 1.26 mM of calcium, read-out: concentration reducing by half the force of contraction): 6 µM
- pD'2 (mean) (rat aortic fragments [1]; mean ± SD, potassium depolarisation): 5.23 ± 0.05 and 5.23
- x (rat aortic fragments [1]; single experiment, cetiedil concentration 1 (pDx 6.00)): 1.16
- pD'2 (rat aortic fragments [1]; single experiment, cetiedil concentration 1): 5.20
- x (rat aortic fragments [1]; single experiments, cetiedil concentration 5 (pDx 5.30)): 1.50 and 2.17
- pD'2 (rat aortic fragments [1]; single experiments, cetiedil concentration 5): 5.00 and 5.37
- x (rat aortic fragments [1]; single experiments, cetiedil concentration 10 (pDx 5.00)): 2.78 and 3.24 and 2.70
- pD'2 (rat aortic fragments [1]; single experiments, cetiedil concentration 10): 5.25 and 5.35 and 5.23
- effect on atrio-ventricular conduction after denervation ([2]; anaesthetized dog, denervated): not altered by denervation
- effect on atrio-ventricular conduction ([2]; anaesthetized dog, intact): significant depression which was proportional to the dose injected
- chronotropic effect ([2]; dog): absence of any significant negative chronotropic effects
- effects on contractile force of the myocardia ([2]; dog, doses of 2.5 and 5 mg/kg): slight
- ED50 ([3]; Cavia porcellus, ip, guinea-pig, urethane 1.2 g/kg IP, substance 5 minutes before intoxication, read-out: ED50 (dose decreasing by half the duration of the disturbances)): ~1.2 mg/kg
- index I = LD50 IV/ED50 ([3]; Table 1, adrenaline petrol-ether, guinea-pig ED50, mouse LD50): 47.50
- activity relative to the reference β-blocker ([3]; guinea pig, adrenaline and petrol-ether): three times less active than the reference β-blocker
- overall safety conclusion ([4]; 0.359 mg/kg infused 9 times over a 10 day-period): safe drug
- abnormalities in electrocardiograms, blood chemistry, hematologic profiles, urine analyses ([4]; 10 volunteers, 0.359 mg/kg, 9 infusions over 10 days): no significant abnormalities
- subjects with doubtful elevation in SGOT value ([4]; after completion of study-period, of 10): 2 subjects
- average duration of side effects after completion of infusion ([4]; after the first infusion): 72.9 min
- subjects complaining of side effects ([4]; after the first infusion): 7 subjects
- duration of side effects ([4]; after the ninth infusion): 15 min
- subjects complaining of side effects ([4]; after the ninth infusion): 3 subjects
- K+ level ([4]; another subject, after completing the study): slight reduction
- Ca++ level ([4]; one subject, after completing the study): minimal elevation
- systemic blood pressure ([4]; one to four hours after infusion): slightly decreased
- Pulse rate ([4]; usually one hour after the infusion): slightly reduced
- pA2 (rat aortic fragments [5]): 6.27
- index LD50/AD50 (ventricular fibrillation) ([6]; Table 2): 18,69
- index LD50/AD50 (death) ([6]; Table 3): 16.29
- AD 50 protection against ventricular fibrillation ([6]; anaesthetized rat, CaCl2 200 mg/kg IV two minutes after substance): 3,50 mg/kg/IV
- ED50 ([6]; anaesthetized rat, CaCl2 200 mg/kg IV two minutes after substance, read-out: AD 50 protection against ventricular fibrillation): 3.5 mg/kg
- activity relative to propranolol ([7]; chloroform induced fibrillation in the mouse): ten times less powerful than propranolol
- ED50 ([7]; mouse, chloroform vapour inhalation, IP, read-out: ED50): ~50 mg/kg
- threshold before the development of cardiac disturbances [8]: significant increase
- % DECREASE SPONTANEOUS RATE ([9]; concentration 10^-5): 26%
- % DECREASE m.f.s. (maximum frequency followed by the atrial) ([9]; concentration 10^-5): 27%
- % DECREASE SPONTANEOUS RATE ([9]; concentration 10^-6): 6%
- % DECREASE m.f.s. (maximum frequency followed by the atrial) ([9]; concentration 10^-6): 14%
- % DECREASE SPONTANEOUS RATE ([9]; concentration 10^-7): 9%
- % DECREASE m.f.s. (maximum frequency followed by the atrial) ([9]; concentration 10^-7): 6%
- negative bathmotropic effect ([9]; concentration of 1.10^-6): identical to that of Quinidine and less than that of Propranolol
- duration of return to sinus rhythm [10]: more than 30 min
- local anaesthetic effects relative to cocaine ([11]; rabbit): twice as great as those of cocaine
- TOTAL DEGREE OF ANAESTHESIA FOR 60 minutes ([11]; 0.25 g./100, HCl salt): 393.2
- TOTAL DEGREE OF ANAESTHESIA FOR 60 minutes ([11]; 0.50 g./100, HCl salt): 798.8
- duration of complete local anaesthesia ([11]; rabbit, local instillation, concentration of 0.5%): 15 min
- share of circulating radio-activity due to a metabolite ([12]; 5 minutes after intravenous injection of 0.25 mg): half
- digestive absorbtion ([12]; C14): excellent
- Rectal absorption ([12]; in vivo): relatively low, and above all, very slow
- Biliary excretion ([12]; individual with a biliary drain): no more than 11%
- terminal half-life of plasma radio-activity ([12]; man, 0.25 mg intravenous, C14): approximately five
- terminal half-life of urinary excretion ([12]; man, C14): ~26 h
- radio-activity excreted in the urines ([12]; man, intact biliary circulation): approximately 65%
- plasma radioactivity following oral administration ([12]; man, versus intravenous injection): markedly higher than after intravenous injection
- urinary excretion ([12]; patient who had undergone surgery): 42%
- radio-active transformation substance in urine ([12]; urine passed 1 hour following the injection): 100%
